Like-named read-outs stand apart in the source and are kept apart here.
Experiments:
primary mouse B cells = experiment: B-cell response experiment (anti-IgM activation, CD86 by flow cytometry); type: cell-based; settings: representative FACS plot, concentration not given
BMX = target: T1, BMX (Homo sapiens, UniProt P51813); experiment: In vitro kinase activity assay (Nanosyn)
T1 sequence (P51813 1-675): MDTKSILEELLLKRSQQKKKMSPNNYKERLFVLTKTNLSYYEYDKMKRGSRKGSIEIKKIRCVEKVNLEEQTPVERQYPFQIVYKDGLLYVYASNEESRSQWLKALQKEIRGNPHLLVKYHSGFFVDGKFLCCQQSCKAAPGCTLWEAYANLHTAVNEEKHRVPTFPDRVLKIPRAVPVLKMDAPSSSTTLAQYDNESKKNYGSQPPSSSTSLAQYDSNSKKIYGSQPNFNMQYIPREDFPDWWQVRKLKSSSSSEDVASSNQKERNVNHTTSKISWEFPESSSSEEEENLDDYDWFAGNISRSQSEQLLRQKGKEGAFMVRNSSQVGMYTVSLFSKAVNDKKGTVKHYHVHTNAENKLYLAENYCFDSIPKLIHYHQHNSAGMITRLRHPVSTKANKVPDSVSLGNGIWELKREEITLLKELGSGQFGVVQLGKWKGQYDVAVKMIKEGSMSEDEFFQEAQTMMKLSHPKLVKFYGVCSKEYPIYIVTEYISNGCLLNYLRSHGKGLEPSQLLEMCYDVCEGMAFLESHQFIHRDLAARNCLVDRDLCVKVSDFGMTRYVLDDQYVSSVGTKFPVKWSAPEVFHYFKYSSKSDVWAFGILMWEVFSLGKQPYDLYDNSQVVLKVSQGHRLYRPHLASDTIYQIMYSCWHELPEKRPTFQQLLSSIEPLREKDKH
Protocol: (§1) Kinase reactions are assembled in 384-well plates (Greiner) in a total volume of 20 μL. Test compounds were diluted in DMSO to a final concentration, while the final concentration of DMSO in all assays was kept at 1%. The compounds were incubated with the kinases for 2 h. […] The reaction was initiated by 2-fold dilution into a solution containing 5 μM ATP and 1 μM substrate in the kinase buffer

BTK kinase domain = BTK kinase domain (Homo sapiens, UniProt Q06187); experiment: Kinetic labeling of BTK by intact protein LC/MS; type: binding
wild-type BTK = wild-type BTK (Homo sapiens, UniProt Q06187); experiment: In vitro kinase activity assay (Nanosyn)
Protocol: as §1

BLK = BLK (Homo sapiens, UniProt P51451); experiment: In vitro kinase activity assay (Nanosyn)
Protocol: as §1

ITK = target: T2, ITK (Homo sapiens, UniProt Q08881); experiment: In vitro kinase activity assay (Nanosyn)
T2 sequence (Q08881 1-620): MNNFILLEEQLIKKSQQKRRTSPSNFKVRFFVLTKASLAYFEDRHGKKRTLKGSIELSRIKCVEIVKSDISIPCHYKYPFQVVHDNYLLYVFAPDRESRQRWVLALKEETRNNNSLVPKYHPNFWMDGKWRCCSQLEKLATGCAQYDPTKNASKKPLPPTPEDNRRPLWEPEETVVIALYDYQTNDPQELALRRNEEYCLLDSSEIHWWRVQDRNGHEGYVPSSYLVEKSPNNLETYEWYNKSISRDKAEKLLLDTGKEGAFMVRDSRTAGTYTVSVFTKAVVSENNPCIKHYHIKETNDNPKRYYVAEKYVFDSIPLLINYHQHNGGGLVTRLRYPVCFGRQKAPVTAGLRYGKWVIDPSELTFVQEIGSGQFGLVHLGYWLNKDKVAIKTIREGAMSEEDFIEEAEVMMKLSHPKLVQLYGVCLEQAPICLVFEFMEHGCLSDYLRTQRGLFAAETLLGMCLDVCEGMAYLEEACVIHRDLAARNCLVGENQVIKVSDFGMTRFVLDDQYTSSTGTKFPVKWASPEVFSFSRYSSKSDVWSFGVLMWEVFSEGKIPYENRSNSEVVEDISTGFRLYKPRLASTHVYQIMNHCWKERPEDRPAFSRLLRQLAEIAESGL
Protocol: as §1

ERBB2 = ERBB2 (Homo sapiens, UniProt P04626); experiment: In vitro kinase activity assay (Nanosyn)
Protocol: as §1

EGFR = EGFR (Homo sapiens, UniProt P00533); experiment: In vitro kinase activity assay (Nanosyn); type: biochemical; settings: for IC50: rounded, 2 h preincubation, 5 μM ATP
Protocol: as §1
in 100 mM HEPES, pH 7.5, 0.1% BSA, 0.01% Triton X-100, 1 mM DTT, 10 mM MnCl2.
initiated by 2-fold dilution into a solution containing 5 μM ATP and 1 μM substrate in the kinase buffer.

Mino cells = experiment: In-gel fluorescence activity-based profiling (in situ proteomic labeling); type: cell-based; settings: Mino cells treated for 2 h, TAMRA-azide click
Protocol: Mino cells were treated for 2 h with either 0.1% DMSO or the indicated concentrations of IA-alkyne, 2a, 2b, and 2c. The cells were lysed with RIPA buffer (Sigma), and protein concentration was determined using the BCA protein assay (Thermo Fisher Scientific). Lysates were then diluted to 2 mg/mL in PBS and clicked to TAMRA-azide (click chemistry tools). Click reaction was performed using a final concentration of 40 μM TAMRA-azide, 3 mM CuSO4, 3 mM tris(3-hydroxypropyltriazolylmethyl)amine (THPTA, Sigma), and 3.7 mM sodium L-ascorbate (Sigma) in a final volume of 60 μL. The samples were incubated at 25 °C for 2 h. A 20 μL amount of 4× LDS sample buffer (NuPAGE, Thermo Fischer Scientific) was added followed by a 10 min incubation at 70 °C. The samples were then loaded on a 4–20% Bis-Tris gel (SurePAGE, GeneScript) and imaged using a Typhoon FLA 9500 scanner.

BTK [1] = target: T3, BTK (Homo sapiens, UniProt Q06187); experiment: HTS with the chemiluminescent probe 3l (%BTK binding inhibition); settings: 10 μM compound, 0.75 μM BTK
BTK [2] = target: T3, BTK; experiment: biochemical; settings: read-out: BTK inhibition (%), 0.75 uM BTK, […] probe 3l, 15 min preincubation
[3] = GSH reactivity assay for ibrutinib derivatives (LC/MS); type: physicochemical; settings: 5 mM GSH in phosphate buffer/DMF 9:1, 100 μM compound, buffer pH 8.0:DMF 9:1, 37 °C
Protocol: (§2) LC/MS runs were performed on a Waters ACUITY UPLC class H instrument, in positive ion mode using electrospray ionization. […] The column was held at 40 °C, and the autosampler at 10 °C. Mobile phase A was 0.1% formic acid in the water, and mobile phase B was 0.1% formic acid in acetonitrile. The run flow was 0.3 mL/min. […] The column was held at 40 °C, and the autosampler at 10 °C. Mobile solution A was 0.1% formic acid in the water, and mobile phase B was 0.1% formic acid in acetonitrile.
All solvents were bubbled with argon.

BTK [4] = target: T3, BTK; experiment: biochemical; parameters: HTS: BTK preincubated 15 min with compound, then chemiluminescent covalent probe 3l; loss of luminescence at 30 min; settings: 0.75 uM BTK, 1.5 uM probe 3l, 15 min preincubation
BTK [5] = target: T3, BTK; settings: 0.75 uM BTK, […] probe 3l, 15 min preincubation, 10 µM, inhibitor, BTK inhibition (%)
[6] = GSH reactivity assay for model compounds (LC/MS); type: physicochemical; settings: 100 μM 1i and 5 mM GSH in PBS buffer, pH 8, 37 °C (n = 3)
Protocol: as §2
All solvents were bubbled with argon. Reaction mixtures were kept at 37 °C with shaking. At various times 5 μL from the reaction mixture was injected into the LC/MS.

BTK [7] = target: T3, BTK; experiment: Chemiluminescence emission of probe 3l with BTK; settings: 2 μM probe, 2 μM BTK
[8] = BTK IC50, in vitro kinase activity assay
[9] = BTK IC50, rounded, 2 h preincubation, 5 μM ATP

T3 sequence (Q06187 402-655 limits assumed): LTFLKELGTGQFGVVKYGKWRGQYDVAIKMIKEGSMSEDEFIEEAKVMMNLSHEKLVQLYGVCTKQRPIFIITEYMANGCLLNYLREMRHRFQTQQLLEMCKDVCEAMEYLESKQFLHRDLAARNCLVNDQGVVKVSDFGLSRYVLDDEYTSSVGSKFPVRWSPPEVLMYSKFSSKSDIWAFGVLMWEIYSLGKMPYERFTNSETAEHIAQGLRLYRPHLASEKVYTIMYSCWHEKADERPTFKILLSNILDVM
Sequence of ERBB2 (P04626 23-1255, species assumed): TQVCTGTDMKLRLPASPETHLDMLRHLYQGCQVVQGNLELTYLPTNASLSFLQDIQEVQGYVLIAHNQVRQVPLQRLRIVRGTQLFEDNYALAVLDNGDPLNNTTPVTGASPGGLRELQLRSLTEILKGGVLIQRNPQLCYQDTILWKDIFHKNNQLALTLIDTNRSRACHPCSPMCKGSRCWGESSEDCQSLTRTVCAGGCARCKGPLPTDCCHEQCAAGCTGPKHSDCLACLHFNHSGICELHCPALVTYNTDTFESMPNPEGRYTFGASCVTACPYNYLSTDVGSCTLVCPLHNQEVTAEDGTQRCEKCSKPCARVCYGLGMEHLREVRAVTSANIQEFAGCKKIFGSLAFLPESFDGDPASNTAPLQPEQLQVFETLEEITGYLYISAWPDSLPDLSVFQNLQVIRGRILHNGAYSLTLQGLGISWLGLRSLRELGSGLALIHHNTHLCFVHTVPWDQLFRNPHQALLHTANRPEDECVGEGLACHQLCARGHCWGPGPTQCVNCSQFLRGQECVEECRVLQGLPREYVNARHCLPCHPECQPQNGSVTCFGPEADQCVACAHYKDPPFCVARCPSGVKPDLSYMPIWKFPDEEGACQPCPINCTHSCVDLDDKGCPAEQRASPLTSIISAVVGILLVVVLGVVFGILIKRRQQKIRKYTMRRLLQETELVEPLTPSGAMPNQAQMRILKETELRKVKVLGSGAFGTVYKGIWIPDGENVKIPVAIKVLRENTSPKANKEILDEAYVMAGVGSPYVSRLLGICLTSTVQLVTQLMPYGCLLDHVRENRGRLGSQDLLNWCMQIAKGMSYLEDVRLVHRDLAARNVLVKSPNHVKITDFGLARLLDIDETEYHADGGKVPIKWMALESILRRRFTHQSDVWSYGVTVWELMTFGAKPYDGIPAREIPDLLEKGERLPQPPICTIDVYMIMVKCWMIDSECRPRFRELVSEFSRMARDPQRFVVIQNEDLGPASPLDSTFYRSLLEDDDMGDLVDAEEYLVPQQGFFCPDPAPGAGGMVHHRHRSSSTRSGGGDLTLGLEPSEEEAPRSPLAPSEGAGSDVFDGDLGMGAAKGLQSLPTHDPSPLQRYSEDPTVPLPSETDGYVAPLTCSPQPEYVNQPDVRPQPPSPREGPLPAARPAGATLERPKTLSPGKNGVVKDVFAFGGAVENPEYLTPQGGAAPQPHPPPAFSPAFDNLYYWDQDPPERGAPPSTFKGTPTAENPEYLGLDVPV
Sequence of EGFR (P00533 25-1210): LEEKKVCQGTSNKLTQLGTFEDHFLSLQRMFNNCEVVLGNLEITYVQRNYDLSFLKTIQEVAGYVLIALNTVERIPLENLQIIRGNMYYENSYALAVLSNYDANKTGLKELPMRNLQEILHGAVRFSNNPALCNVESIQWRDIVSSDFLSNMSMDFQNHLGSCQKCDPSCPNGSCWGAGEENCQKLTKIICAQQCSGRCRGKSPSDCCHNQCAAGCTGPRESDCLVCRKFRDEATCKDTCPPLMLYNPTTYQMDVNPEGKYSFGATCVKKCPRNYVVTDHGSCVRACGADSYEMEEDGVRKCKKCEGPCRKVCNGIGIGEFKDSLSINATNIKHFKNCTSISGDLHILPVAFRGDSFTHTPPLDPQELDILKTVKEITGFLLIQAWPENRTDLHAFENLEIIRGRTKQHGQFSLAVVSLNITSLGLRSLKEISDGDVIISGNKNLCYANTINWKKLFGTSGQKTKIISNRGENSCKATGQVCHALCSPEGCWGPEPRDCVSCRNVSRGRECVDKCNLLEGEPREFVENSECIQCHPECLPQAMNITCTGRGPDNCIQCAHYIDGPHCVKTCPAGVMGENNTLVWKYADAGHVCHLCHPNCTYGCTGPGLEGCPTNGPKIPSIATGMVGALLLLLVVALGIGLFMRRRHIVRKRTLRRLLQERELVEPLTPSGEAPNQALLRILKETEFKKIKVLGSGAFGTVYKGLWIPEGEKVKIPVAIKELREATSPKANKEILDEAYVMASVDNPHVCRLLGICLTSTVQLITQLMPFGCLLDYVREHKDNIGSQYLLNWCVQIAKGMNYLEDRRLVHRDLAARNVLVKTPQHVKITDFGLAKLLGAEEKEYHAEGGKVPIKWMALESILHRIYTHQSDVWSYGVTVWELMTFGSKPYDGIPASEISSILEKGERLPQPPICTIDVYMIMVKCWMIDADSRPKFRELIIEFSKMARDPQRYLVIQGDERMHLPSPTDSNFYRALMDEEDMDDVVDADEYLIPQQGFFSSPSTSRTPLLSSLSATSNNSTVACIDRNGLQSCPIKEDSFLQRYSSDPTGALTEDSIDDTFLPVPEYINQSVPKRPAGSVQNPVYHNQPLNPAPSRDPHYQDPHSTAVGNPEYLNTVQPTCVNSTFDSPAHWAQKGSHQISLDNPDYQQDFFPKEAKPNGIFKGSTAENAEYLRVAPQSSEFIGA
Sequence of BLK (P51451 whole entry, species assumed): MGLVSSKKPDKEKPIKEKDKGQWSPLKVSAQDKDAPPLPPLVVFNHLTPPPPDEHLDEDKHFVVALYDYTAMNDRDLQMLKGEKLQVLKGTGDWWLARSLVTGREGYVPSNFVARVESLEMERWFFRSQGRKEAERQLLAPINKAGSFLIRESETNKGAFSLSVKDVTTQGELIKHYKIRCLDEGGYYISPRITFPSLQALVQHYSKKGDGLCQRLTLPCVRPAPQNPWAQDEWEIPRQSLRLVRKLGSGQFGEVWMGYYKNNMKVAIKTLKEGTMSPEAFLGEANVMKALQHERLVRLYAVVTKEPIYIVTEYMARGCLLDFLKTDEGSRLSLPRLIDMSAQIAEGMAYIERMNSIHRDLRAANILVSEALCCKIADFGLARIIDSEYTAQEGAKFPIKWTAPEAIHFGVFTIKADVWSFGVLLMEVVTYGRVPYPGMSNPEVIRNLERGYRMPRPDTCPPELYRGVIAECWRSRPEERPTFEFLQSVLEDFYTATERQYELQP
Sequence of wild-type BTK (Q06187 whole entry): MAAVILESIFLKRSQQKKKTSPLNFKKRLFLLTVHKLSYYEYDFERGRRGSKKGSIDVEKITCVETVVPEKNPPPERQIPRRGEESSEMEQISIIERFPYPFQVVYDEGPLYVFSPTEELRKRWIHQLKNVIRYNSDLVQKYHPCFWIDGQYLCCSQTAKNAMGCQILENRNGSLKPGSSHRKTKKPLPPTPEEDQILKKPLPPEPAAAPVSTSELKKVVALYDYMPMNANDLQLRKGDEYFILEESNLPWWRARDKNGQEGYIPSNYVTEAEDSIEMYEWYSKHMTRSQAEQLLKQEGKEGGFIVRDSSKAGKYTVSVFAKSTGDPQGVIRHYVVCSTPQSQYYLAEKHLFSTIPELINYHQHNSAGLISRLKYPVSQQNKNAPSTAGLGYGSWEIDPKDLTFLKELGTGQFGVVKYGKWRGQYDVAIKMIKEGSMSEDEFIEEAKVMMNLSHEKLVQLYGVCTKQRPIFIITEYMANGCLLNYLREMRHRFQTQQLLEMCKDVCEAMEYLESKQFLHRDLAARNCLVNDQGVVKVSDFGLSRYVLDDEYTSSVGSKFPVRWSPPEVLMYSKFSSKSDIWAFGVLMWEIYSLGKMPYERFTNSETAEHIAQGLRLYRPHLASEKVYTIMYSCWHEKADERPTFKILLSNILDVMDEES
Sequence of BTK kinase domain (Q06187 402-655 limits assumed): as the sequence (Q06187 402-655 limits assumed) above

C=C(CN1CCCCC1)C(=O)N1CCC[C@@H](n2nc(-c3ccc(Oc4ccccc4)cc3)c3c(N)ncnc32)C1 [3c]
B220+ cells-activated (CD86 positive) (primary mouse B cells): 81.6% | IC50 (BMX): 0.3 nM | BTK labeling mechanism (BTK kinase domain): exclusively through addition with no substitution product | IC50 (wild-type BTK; [8]): < 0.1 nM | IC50 (wild-type BTK; [9]): 0.1 nM | IC50 (BLK): 0.1 nM | IC50 (ITK): 43 nM | IC50 (ERBB2): 33 nM | IC50 (EGFR): 7 nM

C#CCCNC(=O)C(=C)COc1ccc2ccc(=O)oc2c1 [2a]
in situ proteomic labeling (in-gel fluorescence) (Mino cells): labeled more proteins compared to 2b

Cc1cc(-c2ccc(N=Nc3ccc4c(S(=O)(=O)O)cc(S(=O)(=O)O)c(N)c4c3O)c(C)c2)ccc1N=Nc1ccc2c(S(=O)(=O)O)cc(S(=O)(=O)O)c(N)c2c1O [PCM-0214845]
BTK inhibition (%) (BTK [1]): 125.3% | inhibition at 10 µM (BTK [2]): 125%

COc1c/c(=C2\C=c3ccccc3=N2)[nH]/c1=C\c1[nH]c(C)cc1C [PCM-0094986]
BTK inhibition (%) (BTK [1]): 133.1% | inhibition at 10 µM (BTK [2]): 133%

C#CCCNC(=O)C(=C)CN(C)c1ccccc1 [2c]
in situ proteomic labeling (in-gel fluorescence) (Mino cells): completely inactive

C=C(C)C(=O)N1CCC[C@@H](n2nc(-c3ccc(Oc4ccccc4)cc3)c3c(N)ncnc32)C1 [3a]
IC50 (wild-type BTK; BTK IC50, 0.6 nM BTK, 5 μM ATP, Figure 4C): 12.2 nM

C=C(CN(C)c1ccccc1)C(=O)N1CCC[C@@H](n2nc(-c3ccc(Oc4ccccc4)cc3)c3c(N)ncnc32)C1 [3d]
half-life at 100 μM [3]: > 100 h | IC50 (wild-type BTK): 5.6 nM

CC(C)[C@]12O[C@H]1[C@@H]1O[C@@]13[C@@]1(C)CCC4=C(COC4=O)[C@@H]1C[C@@H]1O[C@@]13C2=O [PCM-0216318]
inhibition at 10 µM (BTK [4]): -26.3%

CN1CC[C@H](c2c(O)cc(O)c3c(=O)cc(-c4ccccc4Cl)oc23)[C@H](O)C1 [PCM-0095354]
BTK inhibition (%) (BTK [5]): 17.2% | inhibition at 10 µM (BTK [2]): 29.7%

C=CC(=O)N1CCC[C@@H](n2nc(-c3ccc(Oc4ccccc4)cc3)c3c(N)ncnc32)C1 [ibrutinib, reference compound]
B220+ cells-activated (CD86 positive) (primary mouse B cells): 81.2%

C=C(CNCc1ccccc1)C(=O)N1CCC[C@@H](n2nc(-c3ccc(Oc4ccccc4)cc3)c3c(N)ncnc32)C1 [3e]
B220+ cells-activated (CD86 positive) (primary mouse B cells): 77.3% | IC50 (BMX): 0.4 nM | BMX/BTK (BMX; selectivity ratio of IC50): 5 | half-life at 100 μM [3]: > 100 h | BTK labeling mechanism (BTK kinase domain): exclusively through addition with no substitution product | IC50 (wild-type BTK; [8]): < 0.1 nM | IC50 (wild-type BTK; [9]): 0.1 nM | IC50 (BLK): 0.1 nM | BLK/BTK (BLK; selectivity ratio of IC50): 1 | IC50 (ITK): 30 nM | ITK/BTK (ITK; selectivity ratio of IC50): 383 | IC50 (ERBB2): 13 nM | ERBB2/BTK (ERBB2; selectivity ratio of IC50): 169 | IC50 (EGFR): 3 nM | EGFR/BTK (EGFR; selectivity ratio of IC50): 36

C[C@]12CC[C@H](O)C[C@@]1(O)CC[C@@H]1[C@@H]2CC[C@]2(C)[C@@H](C3=CC(=O)OC3)CC[C@]12O [PCM-0216443]
inhibition at 10 µM (BTK [4]): 6.2%

C=C(COC(=O)OC)C(=O)N1CCC[C@@H](n2nc(-c3ccc(Oc4ccccc4)cc3)c3c(N)ncnc32)C1 [3i]
B220+ cells-activated (CD86 positive) (primary mouse B cells): 85.0% | IC50 (BMX): 0.4 nM | IC50 (BLK): 0.8 nM | IC50 (ITK): 232 nM | IC50 (ERBB2): 172 nM | IC50 (EGFR): 31 nM

CCOc1ccccc1OCCN[C@H](C)Cc1ccc(OC)c(S(N)(=O)=O)c1 [PCM-0214853]
BTK inhibition (%) (BTK [5]): 13.2% | inhibition at 10 µM (BTK [2]): 7%

COc1cc2nccc(Oc3ccc(NC(=O)C4(C(=O)Nc5ccc(F)cc5)CC4)cc3)c2cc1OC [PCM-0094920]
BTK inhibition (%) (BTK [5]): 123.4% | inhibition at 10 µM (BTK [2]): 86.9%

C=C(COC(C)=O)C(=O)N1CCC[C@@H](n2nc(-c3ccc(Oc4ccccc4)cc3)c3c(N)ncnc32)C1 [3h]
B220+ cells-activated (CD86 positive) (primary mouse B cells): 82.9% | IC50 (BMX): 0.3 nM | IC50 (wild-type BTK; [8]): < 0.1 nM | IC50 (wild-type BTK; [9]): 0.1 nM | IC50 (BLK): 0.6 nM | IC50 (ITK): 295 nM | IC50 (ERBB2): 196 nM | IC50 (EGFR): 28 nM

COc1cc(Nc2ncc(F)c(Nc3ccc4c(n3)NC(=O)C(C)(C)O4)n2)cc(OC)c1OC [PCM-0095093]
BTK inhibition (%) (BTK [5]): 31.7% | inhibition at 10 µM (BTK [2]): 32.4%

O=c1c(O)c(-c2ccc(O)c(O)c2)oc2cc(O)cc(O)c12 [PCM-0065486]
BTK inhibition (%) (BTK [5]): 39.3% | inhibition at 10 µM (BTK [2]): 48.2%

C=C(COc1ccc2ccc(=O)oc2c1)C(=O)NCc1ccccc1 [1i]
rate of depletion of 1i, k [6]: 0.24 h⁻¹ | rate of formation of coumarin, k [6]: 0.24 h⁻¹

Cc1cc(Nc2cc(N3CCN(C)CC3)nc(/C=C/c3ccccc3)n2)n[nH]1 [PCM-0095056]
BTK inhibition (%) (BTK [5]): 91% | inhibition at 10 µM (BTK [2]): 85.5%

C=C(COc1c(/C=C/C(=O)OC)ccc(C2(OC)OOC23C2CC4CC(C2)CC3C4)c1Cl)C(=O)N1CCC[C@@H](n2nc(-c3ccc(Oc4ccccc4)cc3)c3c(N)ncnc32)C1 (some centres unmarked) [3l]
chemiluminescence enhancement by BTK (total photon counts vs probe alone) (BTK [7]): 90 fold | time to maximum chemiluminescence signal (BTK [7]): ≤ 20 min

CN(C)[C@@H]1C(=O)C(C(N)=O)=C(O)[C@@]2(O)C(=O)C3=C(O)c4c(O)cccc4[C@@](C)(O)[C@H]3[C@H](O)[C@@H]12 [PCM-0214652]
BTK inhibition (%) (BTK [5]): 33.5% | inhibition at 10 µM (BTK [2]): 35.8%

Source: publication PMC8041284, “Tunable Methacrylamides for Covalent Ligand Directed Release Chemistry” (Journal of the American Chemical Society, 2021)
